Converted amounts (≈) assume the structure as drawn.
Key:
Staphylococcus aureus [1] = assay: Antibacterial activity against methicillin-sensitive Staphylococcus aureus ATCC 29213 by agar dilution method; type: functional
Staphylococcus aureus [2] = assay: Antibacterial activity against methicillin-resistant Staphylococcus aureus 09-13 by agar dilution method; type: functional
[3] = test system: Staphylococcus epidermidis; assay: Antibacterial activity against methicillin-sensitive Staphylococcus epidermidis ATCC 12228 by agar dilution method; type: functional
[4] = test system: Staphylococcus epidermidis; assay: Antibacterial activity against methicillin-resistant Staphylococcus epidermidis 09-3 by agar dilution method; type: functional
Enterococcus faecalis [5] = assay: Antibacterial activity against vancomycin-sensitive Enterococcus faecalis ATCC 29212 by agar dilution method; type: functional
Enterococcus faecalis [6] = assay: Antibacterial activity against vancomycin-resistant Enterococcus faecalis 09-9 by agar dilution method; type: functional
Enterococcus faecium [7] = assay: Antibacterial activity against vancomycin-resistant Enterococcus faecium ATCC 700221 by agar dilution method; type: functional
Escherichia coli [8] = assay: Antibacterial activity against extended-spectrum beta-lactamase-negative Escherichia coli ATCC 25922 by agar dilution method; type: functional
Escherichia coli [9] = assay: Antibacterial activity against extended-spectrum beta-lactamase-positive Escherichia coli 09-1 by agar dilution method; type: functional
Klebsiella pneumoniae [10] = assay: Antibacterial activity against extended-spectrum beta-lactamase-negative Klebsiella pneumoniae 7 by agar dilution method; type: functional
Klebsiella pneumoniae [11] = assay: Antibacterial activity against extended-spectrum beta-lactamase-positive Klebsiella pneumoniae 09-25 by agar dilution method; type: functional
Klebsiella pneumoniae [12] = assay: Antibacterial activity against Klebsiella pneumoniae ATCC BAA-2146 expressing NDM-1 by agar dilution method; type: functional
[13] = Cytotoxicity against HEK293T cells after 48 hrs by MTS assay; type: cell-based, HEK-293T; conditions: human
Enterococcus faecium [14] = assay: Antibacterial activity against vancomycin-sensitive Enterococcus faecium 09-10 by agar dilution method; type: functional
Staphylococcus aureus [15] = assay: Antibacterial activity against methicillin-resistant Staphylococcus aureus ATCC 33591 by agar dilution method; type: functional
Staphylococcus aureus [16] = assay: Antibacterial activity against methicillin-sensitive Staphylococcus aureus 15 by agar dilution method; type: functional
Staphylococcus aureus [17] = assay: Antibacterial activity against methicillin-sensitive Staphylococcus aureus 09-6 by agar dilution method; type: functional
[18] = test system: Staphylococcus epidermidis; assay: Antibacterial activity against methicillin-sensitive Staphylococcus epidermidis 09-9 by agar dilution method; type: functional
Enterococcus faecalis [19] = assay: Antibacterial activity against vancomycin-resistant Enterococcus faecalis ATCC 51299 by agar dilution method; type: functional
Enterococcus faecalis [20] = assay: Antibacterial activity against vancomycin-sensitive Enterococcus faecalis 09-8 by agar dilution method; type: functional
Enterococcus faecium [21] = assay: Antibacterial activity against vancomycin-resistant Enterococcus faecium 05-8 by agar dilution method; type: functional
Escherichia coli [22] = assay: Antibacterial activity against extended-spectrum beta-lactamase-negative Escherichia coli 1515 by agar dilution method; type: functional
Escherichia coli [23] = assay: Antibacterial activity against extended-spectrum beta-lactamase-negative Escherichia coli 09-20 by agar dilution method; type: functional
Klebsiella pneumoniae [24] = assay: Antibacterial activity against extended-spectrum beta-lactamase-positive Klebsiella pneumoniae ATCC 700603 by agar dilution method; type: functional
Klebsiella pneumoniae [25] = assay: Antibacterial activity against extended-spectrum beta-lactamase-negative Klebsiella pneumoniae 09-8 by agar dilution method; type: functional
Pseudomonas aeruginosa [26] = assay: Antibacterial activity against Pseudomonas aeruginosa ATCC 27853 by agar dilution method; type: functional
Pseudomonas aeruginosa [27] = assay: Antibacterial activity against Pseudomonas aeruginosa PAO1 by agar dilution method; type: functional
Pseudomonas aeruginosa [28] = assay: Antibacterial activity against Pseudomonas aeruginosa 09-14 by agar dilution method; type: functional
[29] = test system: Acinetobacter calcoaceticus; assay: Antibacterial activity against Acinetobacter calcoaceticus ATCC 19606 by agar dilution method; type: functional
Enterobacter cloacae = assay: Antibacterial activity against Enterobacter cloacae 45301 by agar dilution method; type: functional
Klebsiella aerogenes = assay: Antibacterial activity against Enterobacter aerogenes 45102 by agar dilution method; type: functional
Serratia marcescens = assay: Antibacterial activity against Serratia marcescens 41002 by agar dilution method; type: functional
Morganella morganii = assay: Antibacterial activity against Morganella morganii ATCC 25830 by agar dilution method; type: functional
Providencia rettgeri = assay: Antibacterial activity against Providencia rettgeri ATCC 31052 by agar dilution method; type: functional
Proteus vulgaris = assay: Antibacterial activity against Proteus vulgaris ATCC 29905 by agar dilution method; type: functional
Proteus mirabilis = assay: Antibacterial activity against Proteus mirabilis 09-1 by agar dilution method; type: functional
Salmonella typhi = assay: Antibacterial activity against Salmonella typhi H901 by agar dilution method; type: functional, Salmonella enterica subsp. enterica serovar Typhi; conditions: Salmonella enterica
Citrobacter freundii = assay: Antibacterial activity against Citrobacter freundii ATCC 43864 by agar dilution method; type: functional
Staphylococcus aureus [30] = assay: Potency index, ratio of levofloxacin MIC to test compound MIC for methicillin-resistant Staphylococcus aureus 09-13; type: functional
[31] = test system: Staphylococcus epidermidis; assay: Potency index, ratio of levofloxacin MIC to test compound MIC for methicillin-resistant Staphylococcus epidermidis 09-3; type: functional
Staphylococcus aureus [32] = assay: Potency index, ratio of vancomycin MIC to test compound MIC for methicillin-resistant Staphylococcus aureus 09-13; type: functional
[33] = test system: Staphylococcus epidermidis; assay: Potency index, ratio of vancomycin MIC to test compound MIC for methicillin-resistant Staphylococcus epidermidis 09-3; type: functional
Enterococcus faecalis [34] = assay: Potency index, ratio of vancomycin MIC to test compound MIC for vancomycin-resistant Enterococcus faecalis 09-9; type: functional
Enterococcus faecium [35] = assay: Potency index, ratio of vancomycin MIC to test compound MIC for vancomycin-resistant Enterococcus faecium ATCC 700221; type: functional

SMILES: CNC(=N)c1ccc2cc(-c3ccc(Oc4ccc(-c5cc6ccc(C(=N)NC)cc6[nH]5)cc4)cc3)[nH]c2c1
- MIC (Staphylococcus aureus [1]): 1 µg/mL (≈ 1.95 µM)
- MIC (Staphylococcus aureus [2]): 0.5 µg/mL (≈ 0.975 µM)
- MIC [3]: 0.25 µg/mL (≈ 0.488 µM)
- MIC [4]: 0.5 µg/mL (≈ 0.975 µM)
- MIC (Enterococcus faecalis [5]): 1 µg/mL (≈ 1.95 µM)
- MIC (Enterococcus faecalis [6]): 1 µg/mL (≈ 1.95 µM)
- MIC (Enterococcus faecium [7]): 0.5 µg/mL (≈ 0.975 µM)
- MIC (Escherichia coli [8]): 128 µg/mL (≈ 250 µM)
- MIC (Escherichia coli [9]): 128 µg/mL (≈ 250 µM)
- MIC (Klebsiella pneumoniae [10]): > 128 µg/mL
- MIC (Klebsiella pneumoniae [11]): > 128 µg/mL
- MIC (Klebsiella pneumoniae [12]): > 128 µg/mL
- CC50 at 48 h [13]: 12.2 µg/mL (≈ 23.8 µM)
- MIC (Enterococcus faecium [14]): 1 µg/mL (≈ 1.95 µM)
- MIC (Staphylococcus aureus [15]): 1 µg/mL (≈ 1.95 µM)
- MIC (Staphylococcus aureus [16]): 1 µg/mL (≈ 1.95 µM)
- MIC (Staphylococcus aureus [17]): 1 µg/mL (≈ 1.95 µM)
- MIC [18]: 1 µg/mL (≈ 1.95 µM)
- MIC (Enterococcus faecalis [19]): 1 µg/mL (≈ 1.95 µM)
- MIC (Enterococcus faecalis [20]): 1 µg/mL (≈ 1.95 µM)
- MIC (Enterococcus faecium [21]): 2 µg/mL (≈ 3.9 µM)
- MIC (Escherichia coli [22]): 128 µg/mL (≈ 250 µM)
- MIC (Escherichia coli [23]): > 128 µg/mL
- MIC (Klebsiella pneumoniae [24]): > 128 µg/mL
- MIC (Klebsiella pneumoniae [25]): > 128 µg/mL
- MIC (Pseudomonas aeruginosa [26]): > 128 µg/mL
- MIC (Pseudomonas aeruginosa [27]): > 128 µg/mL
- MIC (Pseudomonas aeruginosa [28]): > 128 µg/mL
- MIC [29]: > 128 µg/mL
- MIC (Enterobacter cloacae): > 128 µg/mL
- MIC (Klebsiella aerogenes): > 128 µg/mL
- MIC (Serratia marcescens): > 128 µg/mL
- MIC (Morganella morganii): 128 µg/mL (≈ 250 µM)
- MIC (Providencia rettgeri): > 128 µg/mL
- MIC (Proteus vulgaris): > 128 µg/mL
- MIC (Proteus mirabilis): > 128 µg/mL
- MIC (Salmonella typhi): 128 µg/mL (≈ 250 µM)
- MIC (Citrobacter freundii): > 128 µg/mL
- Ratio (Staphylococcus aureus [30]): 16 - 32
- Ratio [31]: 16 - 32
- Ratio (Staphylococcus aureus [32]): 4 - 8
- Ratio [33]: 4 - 8
- Ratio (Enterococcus faecalis [34]): 128 - 256
- Ratio (Enterococcus faecium [35]): 128 - 256

SMILES: CC(C)NC(=N)c1ccc2cc(-c3ccc(Oc4ccc(-c5cc6ccc(C(=N)NC(C)C)cc6[nH]5)cc4)cc3)[nH]c2c1
- MIC (Staphylococcus aureus [1]): 1 µg/mL (≈ 1.76 µM)
- MIC (Staphylococcus aureus [2]): 1 µg/mL (≈ 1.76 µM)
- MIC [3]: 1 µg/mL (≈ 1.76 µM)
- MIC [4]: 1 µg/mL (≈ 1.76 µM)
- MIC (Enterococcus faecalis [5]): 1 µg/mL (≈ 1.76 µM)
- MIC (Enterococcus faecalis [6]): 2 µg/mL (≈ 3.52 µM)
- MIC (Enterococcus faecium [7]): 1 µg/mL (≈ 1.76 µM)
- MIC (Escherichia coli [8]): 16 µg/mL (≈ 28.1 µM)
- MIC (Escherichia coli [9]): 32 µg/mL (≈ 56.3 µM)
- MIC (Klebsiella pneumoniae [10]): 64 µg/mL (≈ 113 µM)
- MIC (Klebsiella pneumoniae [11]): 64 µg/mL (≈ 113 µM)
- MIC (Klebsiella pneumoniae [12]): 64 µg/mL (≈ 113 µM)
- CC50 at 48 h [13]: 7.3 µg/mL (≈ 12.8 µM)
- MIC (Enterococcus faecium [14]): 2 µg/mL (≈ 3.52 µM)
- MIC (Staphylococcus aureus [15]): 1 µg/mL (≈ 1.76 µM)
- MIC (Staphylococcus aureus [16]): 1 µg/mL (≈ 1.76 µM)
- MIC (Staphylococcus aureus [17]): 1 µg/mL (≈ 1.76 µM)
- MIC [18]: 1 µg/mL (≈ 1.76 µM)
- MIC (Enterococcus faecalis [19]): 2 µg/mL (≈ 3.52 µM)
- MIC (Enterococcus faecalis [20]): 1 µg/mL (≈ 1.76 µM)
- MIC (Enterococcus faecium [21]): 1 µg/mL (≈ 1.76 µM)
- MIC (Escherichia coli [22]): 32 µg/mL (≈ 56.3 µM)
- MIC (Escherichia coli [23]): 32 µg/mL (≈ 56.3 µM)
- MIC (Klebsiella pneumoniae [24]): 64 µg/mL (≈ 113 µM)
- MIC (Klebsiella pneumoniae [25]): 64 µg/mL (≈ 113 µM)
- MIC (Pseudomonas aeruginosa [26]): 64 µg/mL (≈ 113 µM)
- MIC (Pseudomonas aeruginosa [27]): > 128 µg/mL
- MIC (Pseudomonas aeruginosa [28]): 64 µg/mL (≈ 113 µM)
- MIC [29]: 128 µg/mL (≈ 225 µM)
- MIC (Enterobacter cloacae): 64 µg/mL (≈ 113 µM)
- MIC (Klebsiella aerogenes): 64 µg/mL (≈ 113 µM)
- MIC (Serratia marcescens): 64 µg/mL (≈ 113 µM)
- MIC (Morganella morganii): 16 µg/mL (≈ 28.1 µM)
- MIC (Providencia rettgeri): 64 µg/mL (≈ 113 µM)
- MIC (Proteus vulgaris): 64 µg/mL (≈ 113 µM)
- MIC (Proteus mirabilis): 64 µg/mL (≈ 113 µM)
- MIC (Salmonella typhi): 32 µg/mL (≈ 56.3 µM)
- MIC (Citrobacter freundii): 64 µg/mL (≈ 113 µM)

Source: ChEMBL document CHEMBL4002623, “Synthesis and in vitro activity of dicationic indolyl diphenyl ethers as novel potent antibiotic agents against drug-resistant bacteria” (Bioorg Med Chem Lett, 2017)
